Laboratory results taken from patent US10689408B2, “Bisphosphonic acid compound” (FUJIYAKUHIN CO., LTD., priority 2016, dated 2020).

How the values were obtained:
[1] = test system: Vitamin D3-Induced Vascular Calcification Rat Model; assay: Ectopic calcification inhibitory effect in vitamin D3-induced vascular calcification rat model (amount of aortic phosphorus); assay type: in vivo, Male Wistar/ST rats; settings: 336 h, oral, once a day for 2 weeks, aortic phosphorus relative to control (vehicle), read-out: Rate of inhibition (%) of ectopic calcification
Excerpt: Test Example: Ectopic Calcification Inhibitory Effect in Vitamin D3-Induced Vascular Calcification Rat Model
Male Wistar/ST rats were grouped according to their body weights as an index (6 individuals per group). Cholecalciferol (Wako Pure Chemical Industries, Ltd.) was subcutaneously administered at repeated doses of 125,000 IU/kg to each rat for 3 days to induce vascular calcification. Each test substance was orally administered at repeated doses once a day for 2 weeks from the day of administration of cholecalciferol. The rats were fasted from approximately 6 hours before the administration of the test substance to approximately 2 hours thereafter. On the day following the final administration, total blood was collected from the descending aorta of each rat under isoflurane anesthesia, and then, the aorta from the aortic root to the posterior limb bifurcation was excised. The aorta was chopped, then homogenized after adding 5 mL of 1 N hydrochloric acid and left at room temperature for 1 hour. After centrifugation at 15,000 rpm at 4° C. for 15 minutes, the obtained supernatant was used as a measurement sample. The amount of phosphorus in the measurement sample was measured using Phospha C-Test Wako (Wako Pure Chemical Industries, Ltd.) and used as an index for calcification. An average value of the amounts of aortic phosphorus in each group was determined to calculate the rate of inhibition of calcification by the administration of the test substance relative to a control (vehicle administration) (Table 7).

[2] = test system: carotid artery intima-media thicknesses; settings: type 2 diabetic patients; cited from earlier work
[3] = test system: calcification in the aorta; settings: dialysis patients; cited from earlier work

SMILES | inhibition in vivo at 5 mg/kg [1] [%] | other results
C[C@H]1CC[C@@H](CC(O)(P(=O)(O)O)P(=O)(O)O)C1 (relative stereo) [Example 16, Disodium {1-hydroxy-2-[(1R*,3S*)-3-methylcyclopentyl]ethane-1,1-diyl}bisphosphonate] | 75 | 
C[C@H]1CC[C@H](CC(O)(P(=O)(O)O)P(=O)(O)O)C1 (relative stereo) [Example 17, Disodium {1-hydroxy-2-[(1R*,3R*)-3-methylcyclopentyl]ethane-1,1-diyl}bisphosphonate] | 80 | 
O=P(O)(O)C(O)(C[C@@H]1CC[C@@H](F)C1)P(=O)(O)O (relative stereo) [Example 18, Disodium {2-[(1R*,3R*)-3-fluorocyclopentyl]-1-hydroxyethane-1,1-diyl}bisphosphonate] | 53 | 
O=P(O)(O)C(O)(C[C@@H]1CC[C@@H](Oc2ccccc2)C1)P(=O)(O)O (relative stereo) [Example 20, Disodium {1-hydroxy-2-[(1R*,3R*)-3-phenoxycyclopentyl]ethane-1,1-diyl}bisphosphonate] | 46 | 
CC(C1CCC1)C(O)(P(=O)(O)O)P(=O)(O)O (stereo not drawn) [Example 3, Disodium (2-cyclobutyl-1-hydroxypropane-1,1-diyl)bisphosphonate] |  | inhibition in vivo at 10 mg/kg [1]: 64%
CC1(CC(O)(P(=O)(O)O)P(=O)(O)O)CCC1 [Example 4, Disodium [1-hydroxy-2-(1-methylcyclobutyl)ethane-1,1-diyl]bisphosphonate] | 39 | 
O=P(O)(O)C(O)(CC1CCCC1)P(=O)(O)O [Example 6, Disodium (2-cyclopentyl-1-hydroxyethane-1,1-diyl)bisphosphonate] |  | inhibition in vivo at 30 mg/kg [1]: 95%
O=P(O)(O)C(O)(C=C1CCCC1)P(=O)(O)O [Example 7, Disodium (2-cyclopentylidene-1-hydroxyethane-1,1-diyl)bisphosphonate] | 51 | 
CC(C1CCCC1)C(O)(P(=O)(O)O)P(=O)(O)O (stereo not drawn) [Example 8, Disodium (2-cyclopentyl-1-hydroxypropane-1,1-diyl)bisphosphonate] |  | inhibition in vivo at 3 mg/kg [1]: 22%
CC1(CC(O)(P(=O)(O)O)P(=O)(O)O)CCCC1 [Example 11, Disodium [1-hydroxy-2-(1-methylcyclopentyl)ethane-1,1-diyl]bisphosphonate] | 57 | 
CCC1(CC(O)(P(=O)(O)O)P(=O)(O)O)CCCC1 [Example 12, Disodium [2-(1-ethylcyclopentyl)-1-hydroxyethane-1,1-diyl]bisphosphonate] | 28 | 
CCCC1(CC(O)(P(=O)(O)O)P(=O)(O)O)CCCC1 [Example 13, Disodium [1-hydroxy-2-(1-propylcyclopentyl)ethane-1,1-diyl]bisphosphonate] | 53 | 
CC1CCCC1CC(O)(P(=O)(O)O)P(=O)(O)O (stereo not drawn) [Example 14, Disodium [1-hydroxy-2-(2-methylcyclopentyl)ethane-1,1-diyl]bisphosphonate] | 29 | 
CC1CCC(CC(O)(P(=O)(O)O)P(=O)(O)O)C1 (stereo not drawn) [Example 15, Disodium [1-hydroxy-2-(3-methylcyclopentyl)ethane-1,1-diyl]bisphosphonate] | 87 | 
CC1(C)CCC(CC(O)(P(=O)(O)O)P(=O)(O)O)C1 (stereo not drawn) [Example 21, Disodium [2-(3,3-dimethylcyclopentyl)-1-hydroxyethane-1,1-diyl]bisphosphonate] | 68 | 
O=P(O)(O)C(O)(CC1CCC(F)(F)C1)P(=O)(O)O (stereo not drawn) [Example 23, Disodium [2-(3,3-difluorocyclopentyl)-1-hydroxyethane-1,1-diyl]bisphosphonate] | 43 | 
C[C@@H]1C[C@H](CC(O)(P(=O)(O)O)P(=O)(O)O)C[C@@H]1C [Example 24, Disodium {2-[(1r,3R,4S)-3,4-dimethylcyclopentyl]-1-hydroxyethane-1,1-diyl}bisphosphonate] | 93 | 
C[C@@H]1C[C@@H](CC(O)(P(=O)(O)O)P(=O)(O)O)C[C@@H]1C [Example 25, Disodium {2-[(1s,3R,4S)-3,4-dimethylcyclopentyl]-1-hydroxyethane-1,1-diyl}bisphosphonate] | 64 | 
CC1(C)CC(CC(O)(P(=O)(O)O)P(=O)(O)O)CC1(C)C [Example 26, Disodium [1-hydroxy-2-(3,3,4,4-tetramethylcyclopentyl)ethane-1,1-diyl]bisphosphonate] | 66 | 
O=P(O)(O)C(O)(CC1CCCCC1)P(=O)(O)O [Example 27, Disodium (2-cyclohexyl-1-hydroxyethane-1,1-diyl)bisphosphonate] | 82 | 
CC(C1CCCCC1)C(O)(P(=O)(O)O)P(=O)(O)O (stereo not drawn) [Example 28, Disodium (2-cyclohexyl-1-hydroxypropane-1,1-diyl)bisphosphonate] |  | inhibition in vivo at 30 mg/kg [1]: 95%
CC1(CC(O)(P(=O)(O)O)P(=O)(O)O)CCCCC1 [Example 30, Disodium [1-hydroxy-2-(1-methylcyclohexyl)ethane-1,1-diyl]bisphosphonate] | 47 | 
O=P(O)(O)C(O)(CC1CC2CCC1C2)P(=O)(O)O (stereo not drawn) [Example 31, Disodium [2-(bicyclo[2.2.1]heptan-2-yl)-1-hydroxyethane-1,1-diyl]bisphosphonate] |  | inhibition in vivo at 3 mg/kg [1]: 29%
CC1(C)CC(CC(O)(P(=O)(O)O)P(=O)(O)O)CC(C)(C)C1 [Example 35, Disodium [1-hydroxy-2-(3,3,5,5-tetramethylcyclohexyl)ethane-1,1-diyl]bisphosphonate] | 71 | 
O=P(O)(O)C(O)(CC1CCCCCC1)P(=O)(O)O [Example 44, Disodium (2-cycloheptyl-1-hydroxyethane-1,1-diyl)bisphosphonate] |  | inhibition in vivo at 10 mg/kg [1]: 95%
CC(O)(P(=O)(O)O)P(=O)(O)O [etidronate, Etidronate] |  | carotid artery intima-media thickness [2]: significantly decrease the carotid artery intima-media thicknesses; inhibition of calcification in the aorta [3]: significantly inhibit calcification in the aorta
